Source: patent US20230118688A1, “1H-PYRAZOLO[4,3-d]PYRIMIDINE COMPOUNDS AS TOLL-LIKE RECEPTOR 7 (TLR7) AGONISTS” (BRISTOL-MYERS SQUIBB COMPANY, priority 2020, published 2023)

molecular target: T1, human TLR7 (Homo sapiens, UniProt Q9NYK1); assay: Human TLR7 agonist activity reporter assay (HEK-Blue TLR7 cells, SEAP reporter); format: cell-based; conditions: 18 h treatment, average where assay repeated, Table A1, read-out: hTLR7 Agonism EC50
T1 construct: host or cells: HEK-Blue TLR7 cells (engineered human embryonic kidney cells)
T1 sequence (Q9NYK1 27-1049): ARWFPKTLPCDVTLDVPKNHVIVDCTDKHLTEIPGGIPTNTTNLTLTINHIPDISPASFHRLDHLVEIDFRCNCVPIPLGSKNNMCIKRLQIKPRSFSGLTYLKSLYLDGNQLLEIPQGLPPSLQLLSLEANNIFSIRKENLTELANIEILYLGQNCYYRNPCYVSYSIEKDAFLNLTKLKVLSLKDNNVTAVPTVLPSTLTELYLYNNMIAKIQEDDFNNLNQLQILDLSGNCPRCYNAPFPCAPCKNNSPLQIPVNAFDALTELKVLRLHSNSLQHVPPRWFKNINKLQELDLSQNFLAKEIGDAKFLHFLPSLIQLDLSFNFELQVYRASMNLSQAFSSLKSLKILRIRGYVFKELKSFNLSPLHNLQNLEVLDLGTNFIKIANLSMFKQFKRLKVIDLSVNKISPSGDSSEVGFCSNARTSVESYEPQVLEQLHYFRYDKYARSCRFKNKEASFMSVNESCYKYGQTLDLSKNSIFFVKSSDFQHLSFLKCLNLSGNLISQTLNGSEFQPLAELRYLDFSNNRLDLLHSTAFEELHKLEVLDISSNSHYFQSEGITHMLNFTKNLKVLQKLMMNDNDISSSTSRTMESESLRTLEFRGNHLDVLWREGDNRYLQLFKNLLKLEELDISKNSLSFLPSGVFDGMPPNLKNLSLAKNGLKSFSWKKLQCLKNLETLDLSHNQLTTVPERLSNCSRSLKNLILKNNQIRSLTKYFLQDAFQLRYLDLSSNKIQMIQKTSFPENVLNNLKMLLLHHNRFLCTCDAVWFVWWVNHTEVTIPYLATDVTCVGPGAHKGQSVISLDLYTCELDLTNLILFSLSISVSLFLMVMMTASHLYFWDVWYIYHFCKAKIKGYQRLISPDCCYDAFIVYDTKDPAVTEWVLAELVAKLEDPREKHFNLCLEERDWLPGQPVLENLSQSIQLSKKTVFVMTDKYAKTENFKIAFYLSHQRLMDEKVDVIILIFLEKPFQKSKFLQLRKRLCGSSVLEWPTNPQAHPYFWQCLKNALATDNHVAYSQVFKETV
Procedure: This procedure describes a method for assaying human TLR7 (hTLR7) agonist activity of the compounds disclosed in this specification.
HEK-Blue™ TLR7 cells were added to each well of a 384-well tissue-culture plate (15,000 cells per well) and incubated 16-18 h at 37° C., 5% CO2. Compounds (100 nl) were dispensed into wells containing the HEK-Blue™ TLR cells and the treated cells were incubated at 37° C., 5% CO2. After 18 h treatment ten microliters of freshly-prepared Quanti-Blue™ reagent (Invivogen) was added to each well, incubated for 30 min (37° C., 5% CO2) and SEAP levels measured using an Envision plate reader (OD=620 nm). The half maximal effective concentration values (EC50; compound concentration which induced a response halfway between the assay baseline and maximum) were calculated.

SMILES | EC50
CCCCNc1nc(N)nc2cnn(Cc3cc(CNC4CCOCC4)ccc3OC)c12 [Compound 101, N7-butyl-1-[(2-methoxy-5-{[(oxan-4-yl)amino]-methyl}phenyl)methyl]-1H-pyrazolo[4,3-d]pyrimidine-5,7-diamine] | 0.352 µM
CCCCNc1nc(N)nc2cnn(Cc3cc(CN4CCC5CCC(C5)C4)ccc3OC)c12 (stereo not shown) [Compound 102, 1-{[5-({3-azabicyclo-[4.2.1]nonan-3-yl}methyl)-2-methoxyphenyl]methyl}-N7-butyl-1H-pyrazolo[4,3-d]pyrimidine-5,7-diamine] | 0.658 µM
CCCCNc1nc(N)nc2cnn(Cc3cc(CN4CCC5CCC(C5)C4)ccc3OC)c12 (stereo not shown) [Compound 103, 1-{[5-({3-azabicyclo-[4.2.1]nonan-3-yl}methyl)-2-methoxyphenyl]methyl}-N7-butyl-1H-pyrazolo[4,3-d]pyrimidine-5,7-diamine] | 0.193 µM
CCCCNc1nc(N)nc2cnn(Cc3cc(CN4CC5CCCC(C5)C4)ccc3OC)c12 [Compound 104, 1-{[5-({3-azabicyclo-[3.3.1]nonan-3-yl}methyl)-2-methoxyphenyl]methyl}-N7-butyl-1H-pyrazolo[4,3-d]pyrimidine-5,7-diamine] | 0.63 µM
CCCCNc1nc(N)nc2cnn(Cc3cc(CN4CC5CCCCCC54)ccc3OC)c12 (stereo not shown) [Compound 106, 1-{[5-({8-azabicyclo-[5.2.0]nonan-8-yl}methyl)-2-methoxyphenyl]methyl}-N7-butyl-1H-pyrazolo[4,3-d]pyrimidine-5,7-diamine] | 0.502 µM
CCCCNc1nc(N)nc2cnn(Cc3cc(CN4CC5CCCC(C4)C5O)ccc3OC)c12 (stereo not shown) [Compound 107, 3-[(3-{[5-amino-7-(butyl-amino)-1H-pyrazolo[4,3-d]pyrimidin-1-yl]methyl}-4-methoxyphenyl)methyl]-3-aza bicyclo[3.3.1]nonan-9-ol] | 0.75 µM
CCCCNc1nc(N)nc2cnn(Cc3cc(CN4CC(O)C4)ccc3OC)c12 [Compound 108, 1-[(3-{[5-amino-7-(butyl-amino)-1H-pyrazolo[4,3-d]pyrimidin-1-yl]methyl}-4-methoxyphenyl)me-thyl]azetidin-3-ol] | 0.146 µM
CCCCNc1nc(N)nc2cnn(Cc3cc(CN4CCN(C)CC4)ccc3OC)c12 [Compound 109, N7-butyl-1-({2-methoxy-5-[(4-methylpiperazin-1-yl)methyl]phenyl}methyl)-1H-pyrazolo[4,3-d] pyrimidine-5,7-diamine] | 0.0513 µM
CCCCNc1nc(N)nc2cnn(Cc3cc(CNC45CC(C4)C5)ccc3OC)c12 [Compound 110, 1-({5-[({bicyclo[1.1.1]-pentan-1-yl}amino)methyl]-2-methoxyphenyl}-methyl)-N7-butyl-1H-pyrazolo[4,3-d]pyrimidine-5,7-diamine] | 0.447 µM
CCCCNc1nc(N)nc2cnn(Cc3cc(CNC4CC5(CC5)C4)ccc3OC)c12 [Compound 111, N7-butyl-1-({2-methoxy-5-[({spiro[2.3]hexan-5-yl}amino)methyl]phenyl}methyl)-1H-pyrazolo[4,3-d]pyrimidine-5,7-diamine] | 0.358 µM
CCCCNc1nc(N)nc2cnn(Cc3cc(CNC(C)(C)C)ccc3OC)c12 [Compound 112] | 0.249 µM
CCCCNc1nc(N)nc2cnn(Cc3cc(CN4CC5CCS(=O)(=O)C5C4)ccc3OC)c12 (stereo not shown) [Compound 113, 5-[(3-{[5-amino-7-(butyl-amino)-1H-pyrazolo[4,3-d]pyrimidin-1-yl]methyl}-4-methoxyphenyl)methyl]-hexahydro-2H-1λ6-thieno-[2,3-c]pyrrole-1,1-dione] | 0.493 µM
CCCCNc1nc(N)nc2cnn(Cc3cc(CN4CCC4)ccc3OC)c12 [Compound 115, 1-({5-[(azetidin-1-yl)methyl]-2-methoxyphenyl}-methyl)-N7-butyl-1H-pyrazolo[4,3-d]pyrimidine-5,7-diamine] | 0.172 µM
CCC[C@@H](CCO)Nc1nc(N)nc2cnn(Cc3cc(CN[C@H]4CCOC[C@H]4O)ccc3OC)c12 [Compound 179, (3S,4S)-4-[({3-[(5-amino-7-{[(3S)-1-hydroxyhexan-3-yl]amino}-1H-pyrazolo[4,3-d]pyrimidin-1-yl)methyl]-4-methoxyphenyl}methyl)-amino]oxan-3-ol] | 0.405 µM
CCC[C@@H](CCO)Nc1nc(N)nc2cnn(Cc3cc(CN[C@@H]4COCC[C@H]4O)ccc3OC)c12 [Compound 180, (3R,4R)-3-[({3-[(5-amino-7-{[(3S)-1-hydroxyhexan-3-yl]amino}-1H-pyrazolo[4,3-d]pyrimidin-1-yl)methyl]-4-methoxyphenyl}methyl)-amino]oxan-4-ol] | 0.213 µM
CCC[C@@H](CCO)Nc1nc(N)nc2cnn(Cc3cc(CN[C@@H]4COC[C@H]4O)ccc3OC)c12 [Compound 181, (3S,4R)-4-[({3-[(5-amino-7-{[(3S)-1-hydroxyhexan-3-yl]amino}-1H-pyrazolo[4,3-d]pyrimidin-1-yl)methyl]-4-methoxyphenyl}methyl)-amino]oxolan-3-ol] | 0.308 µM
CCC[C@@H](CCO)Nc1nc(N)nc2cnn(Cc3cc(CN[C@H]4COCC[C@@H]4O)ccc3OC)c12 [Compound 182, (3S,4S)-3-[({3-[(5-amino-7-{[(3S)-1-hydroxyhexan-3-yl]amino}-1H-pyrazolo[4,3-d]pyrimidin-1-yl)methyl]-4-methoxyphenyl}methyl)-amino]oxan-4-ol] | 0.197 µM
CCC[C@@H](CCO)Nc1nc(N)nc2cnn(Cc3cc(CN[C@@H]4CCOC[C@H]4O)ccc3OC)c12 [Compound 183, (3S,4R)-4-[({3-[(5-amino-7-{[(3S)-1-hydroxyhexan-3-yl]amino}-1H-pyrazolo[4,3-d]pyrimidin-1-yl)methyl]-4-methoxyphenyl}methyl)-amino]oxan-3-ol] | 0.479 µM
CCC[C@@H](CCO)Nc1nc(N)nc2cnn(Cc3cc(CN[C@H]4COC[C@@H]4O)ccc3OC)c12 [Compound 184] | 0.339 µM
